Results taken from ChEMBL document CHEMBL3526122, “Identification of UDP-glucuronosyltransferases responsible for the glucuronidation of darexaban, an oral factor Xa inhibitor, in human liver and intestine” (Drug Metab Dispos, 2012).

Assays:
[1] = test system: Liver microsome; assay: Drug metabolism in human liver microsomes assessed as glucuronidation per mg of protein after 10 mins by Michaelis-Menten plot analysis in presence of UDPGA and 0.5% fatty acid free BSA; assay type: ADME
[2] = target: T1, UDP-glucuronosyltransferase 1A8 (Homo sapiens, UniProt Q9HAW9); assay: Activity of human recombinant UGT1A8 expressed in baculovirus-infected insect cells assessed as intrinsic clearance for enzyme-mediated glucuronide formation per mg of protein at 1 to 250 uM after 10 mins in presence of UDPGA; assay type: ADME
T1 sequence (Q9HAW9 whole entry): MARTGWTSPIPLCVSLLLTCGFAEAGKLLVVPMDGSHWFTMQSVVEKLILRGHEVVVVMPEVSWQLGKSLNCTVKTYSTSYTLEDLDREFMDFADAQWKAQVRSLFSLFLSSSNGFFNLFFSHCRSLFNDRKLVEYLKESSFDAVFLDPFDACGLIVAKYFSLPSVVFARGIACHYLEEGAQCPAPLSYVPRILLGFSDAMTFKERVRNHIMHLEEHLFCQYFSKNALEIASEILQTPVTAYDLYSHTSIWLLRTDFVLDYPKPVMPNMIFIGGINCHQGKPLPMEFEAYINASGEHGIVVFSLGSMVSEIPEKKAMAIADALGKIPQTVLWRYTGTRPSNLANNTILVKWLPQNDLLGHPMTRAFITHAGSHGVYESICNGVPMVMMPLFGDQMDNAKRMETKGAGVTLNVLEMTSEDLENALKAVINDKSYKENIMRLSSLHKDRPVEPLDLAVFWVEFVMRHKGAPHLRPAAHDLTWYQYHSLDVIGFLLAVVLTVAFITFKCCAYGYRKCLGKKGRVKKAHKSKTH

[3] = Fraction unbound incubation mixture containing human recombinant UGT1A9 at 1 to 250 uM after 10 mins by ultrafiltration method in presence of 0.1% fatty acid free BSA
[4] = target: T2, UDP-glucuronosyltransferase 1A9 (Homo sapiens, UniProt O60656); assay: Activity of human recombinant UGT1A9 expressed in baculovirus-infected insect cells assessed as unbound intrinsic clearance for enzyme-mediated glucuronidation per mg of protein after 5 mins by Michaelis-Menten plot analysis in presence of UDPGA and absence of fatty acid free BSA; assay type: ADME
T2 sequence (O60656 whole entry): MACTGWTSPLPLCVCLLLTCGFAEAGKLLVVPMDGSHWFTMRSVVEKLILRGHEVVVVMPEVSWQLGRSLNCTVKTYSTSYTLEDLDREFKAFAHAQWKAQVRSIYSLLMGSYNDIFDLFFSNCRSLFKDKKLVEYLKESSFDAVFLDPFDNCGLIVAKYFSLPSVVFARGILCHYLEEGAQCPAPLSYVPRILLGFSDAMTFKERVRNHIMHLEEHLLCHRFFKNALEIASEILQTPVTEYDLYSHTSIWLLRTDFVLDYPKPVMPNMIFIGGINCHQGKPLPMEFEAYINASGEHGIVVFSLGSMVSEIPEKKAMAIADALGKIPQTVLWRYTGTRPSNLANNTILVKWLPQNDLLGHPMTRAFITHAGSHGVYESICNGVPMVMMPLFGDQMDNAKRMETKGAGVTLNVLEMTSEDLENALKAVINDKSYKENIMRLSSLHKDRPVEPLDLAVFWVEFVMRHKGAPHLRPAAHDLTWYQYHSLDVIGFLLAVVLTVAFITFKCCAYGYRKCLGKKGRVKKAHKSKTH

[5] = target: T1, UDP-glucuronosyltransferase 1A8; assay: Activity of human recombinant UGT1A8 expressed in baculovirus-infected insect cells assessed as enzyme-mediated glucuronidation per mg of protein after 10 mins in presence of UDPGA; assay type: ADME
[6] = target: T2, UDP-glucuronosyltransferase 1A9; assay: Activity of human recombinant UGT1A9 expressed in baculovirus-infected insect cells assessed as unbound intrinsic clearance for enzyme-mediated glucuronidation per mg of protein after 5 mins by Michaelis-Menten plot analysis in presence of UDPGA and 0.5% fatty acid free BSA; assay type: ADME
[7] = target: T2, UDP-glucuronosyltransferase 1A9; assay: Activity of human recombinant UGT1A9 expressed in baculovirus-infected insect cells assessed as intrinsic clearance for enzyme-mediated glucuronide formation per mg of protein at 1 to 250 uM after 5 mins by Michaelis-Menten plot analysis in presence of UDPGA; assay type: ADME
[8] = target: T3, UDP-glucuronosyltransferase 1A3 (Homo sapiens, UniProt P35503); assay: Activity of human recombinant UGT1A3 expressed in baculovirus-infected insect cells assessed as enzyme-mediated glucuronidation per mg of protein after 10 mins in presence of UDPGA; assay type: ADME
T3 sequence (P35503 whole entry): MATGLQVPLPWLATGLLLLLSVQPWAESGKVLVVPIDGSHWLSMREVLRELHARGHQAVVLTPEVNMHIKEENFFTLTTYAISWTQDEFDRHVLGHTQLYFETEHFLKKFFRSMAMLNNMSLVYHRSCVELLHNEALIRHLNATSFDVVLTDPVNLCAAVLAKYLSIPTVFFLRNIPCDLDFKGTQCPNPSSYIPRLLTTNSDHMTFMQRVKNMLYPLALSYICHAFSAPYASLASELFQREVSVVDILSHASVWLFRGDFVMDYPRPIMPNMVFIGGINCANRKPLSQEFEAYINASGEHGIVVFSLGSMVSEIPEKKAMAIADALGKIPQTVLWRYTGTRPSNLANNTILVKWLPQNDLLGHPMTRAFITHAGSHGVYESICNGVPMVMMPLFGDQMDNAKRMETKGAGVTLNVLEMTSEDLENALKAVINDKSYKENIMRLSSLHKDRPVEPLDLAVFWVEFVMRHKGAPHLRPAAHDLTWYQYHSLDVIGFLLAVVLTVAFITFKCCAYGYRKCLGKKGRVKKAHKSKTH

[9] = target: T4, UDP-glucuronosyltransferase 1A10 (Homo sapiens, UniProt Q9HAW8); assay: Activity of human recombinant UGT1A10 expressed in baculovirus-infected insect cells assessed as intrinsic clearance for enzyme-mediated glucuronide formation per mg of protein at 1 to 250 uM after 10 mins in presence of UDPGA; assay type: ADME
T4 sequence (Q9HAW8 whole entry): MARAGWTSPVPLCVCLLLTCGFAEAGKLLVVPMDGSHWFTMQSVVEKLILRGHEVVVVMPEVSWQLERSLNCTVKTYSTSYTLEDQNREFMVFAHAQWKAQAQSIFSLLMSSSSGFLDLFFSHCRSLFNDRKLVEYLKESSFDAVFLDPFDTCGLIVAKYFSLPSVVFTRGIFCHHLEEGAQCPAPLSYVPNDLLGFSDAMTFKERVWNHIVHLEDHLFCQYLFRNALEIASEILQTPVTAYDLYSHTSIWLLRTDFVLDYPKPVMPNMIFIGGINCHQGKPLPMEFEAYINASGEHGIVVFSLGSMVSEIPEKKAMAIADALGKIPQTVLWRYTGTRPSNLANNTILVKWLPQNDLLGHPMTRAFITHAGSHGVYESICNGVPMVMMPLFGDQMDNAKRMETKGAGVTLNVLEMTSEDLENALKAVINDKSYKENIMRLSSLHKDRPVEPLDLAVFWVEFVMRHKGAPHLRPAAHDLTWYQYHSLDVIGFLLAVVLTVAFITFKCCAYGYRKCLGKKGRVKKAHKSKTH

[10] = test system: Liver microsome; assay: Unbound intrinsic clearance in human liver microsomes assessed per mg of protein after 10 mins in presence of UDPGA and 2% fatty acid free BSA; assay type: ADME
[11] = test system: Liver microsome; assay: Intrinsic clearance in human liver microsomes assessed per mg of protein at 1 to 250 uM after 10 mins in presence of UDPGA; assay type: ADME

- Vmax [1]: 3.25 nmol/min/mg
- clearance [2]: 51.5 µL/min/mg
- CL free [4]: 138 µL/min/mg
- Drug metabolism [5]: 0.393 nmol/min/mg
- CL free [6]: 257 µL/min/mg
- clearance [7]: 132 µL/min/mg
- Drug metabolism [8]: < 0.01 nmol/min/mg
- clearance [9]: 39.8 µL/min/mg
- CL free [10]: 178 µL/min/mg
- CLint [11]: 8.71 µL/min/mg
SMILES: COc1ccc(C(=O)Nc2cccc(O)c2NC(=O)c2ccc(N3CCCN(C)CC3)cc2)cc1.O=C(O)CCC(=O)O
- Fu [3]: 0.755
